Activity calls are given as the source filed them.
Legend:
[1] = P. falciparum late gametocyte killing, dose response, luminescence (AID 1117278); format: functional, cell-based;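 also: gametocytes exposed to compound for 24 hours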
[2] = Jurkat T cell cytotoxicity, dose response, cytotoxicity control for P. falciparum gametocyte viability project, luminescence (AID 1117277); format: functional, cell-based;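 also: potency reflects loss of cellular ATP meaning fewer viable cells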
[3] = target: Prothrombin (Homo sapiens, UniProt P00734); assay: Thrombin 1536 HTS Dose Response Confirmation. [Related pubchem assays: 1046 (Thrombin 1536 HTS; hits were confirmed in this assay)]; format: functional
[4] = target: T1, Calpain-2 catalytic subunit (Sus scrofa, UniProt P43367); assay: pig calpain II inhibitor potency, dose response, biochemical, fluorogenic peptide substrate (AID 1420); format: functional
T1 sequence (P43367 whole entry): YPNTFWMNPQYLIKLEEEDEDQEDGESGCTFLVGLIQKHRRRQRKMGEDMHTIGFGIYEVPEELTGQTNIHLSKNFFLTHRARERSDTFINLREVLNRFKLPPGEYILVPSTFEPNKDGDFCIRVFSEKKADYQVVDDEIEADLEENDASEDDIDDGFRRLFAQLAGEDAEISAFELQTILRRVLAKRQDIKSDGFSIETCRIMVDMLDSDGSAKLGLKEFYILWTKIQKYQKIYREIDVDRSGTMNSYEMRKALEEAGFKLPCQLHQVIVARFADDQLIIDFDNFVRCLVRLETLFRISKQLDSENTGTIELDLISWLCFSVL

[5] = Luminescence Cell-Based Dose Confirmation HTS to Identify Activators of 5'UTR Stem-Loop Driven Alpha-Synuclein mRNA Translation in H4 Neuroglioblastoma Cells. [Related pubchem assays: 1829 (Project Summary), 1814 (Primary HTS)]; format: functional
[6] = Luminescence Cell-Based Dose Response to Identify Activators of 5'UTR Stem-Loop Driven Prion Protein mRNA Translation in H4-C Neuroglioblastoma Cells. [Related pubchem assays: 1829 (Project Summary), 1814 (Primary HTS)]; format: functional
[7] = Luminescence Cell-Based Dose Response to Identify Activators of Luciferase Translation or Activity in H4-C Neuroglioblastoma Cells. [Related pubchem assays: 1829 (Project Summary), 1814 (Primary HTS)]; format: functional
[8] = system: H4; assay: Luminescence Cell-Based Dose Response HTS to Identify Activators of 5'UTR Stem-Loop Driven Prion Protein mRNA Translation in H4 Neuroglioblastoma Cells. [Related pubchem assays: 1829 (Project Summary), 1814 (Primary HTS)]; format: functional; settings: Homo sapiens
[9] = Luminescence Cell-Based Dose Confirmation to Identify Activators of 5'UTR Stem-Loop Driven Alpha-Synuclein mRNA Translation in H4 Neuroglioblastoma Cells. [Related pubchem assays: 1829 (Project Summary), 1814 (Primary HTS)]; format: functional
[10] = Luminescence Cell-Based Dose Response HTS to Identify Activators of Luciferase Translation or Activity in H4 […] Cells. [Related pubchem assays: 1829 (Project Summary), 1814 (Primary HTS)]; format: functional
[11] = target: T2, Small ubiquitin-related modifier 1 (Homo sapiens, UniProt P63165); assay: inhibitors of SUMO1 peptide binding, dose response, biochemical, fluorescence polarization, uHTS hits (AID 624382); format: functional; settings: read-out: IC50_Mean
[12] = target: T3, DNA repair and recombination protein RAD54-like (Homo sapiens, UniProt Q92698); assay: inhibitors of human RAD54 branch migration, confirmation, biochemical, fluorescence, cherry-picked samples, dose series (AID 651657); format: functional
T3 sequence (Q92698 whole entry): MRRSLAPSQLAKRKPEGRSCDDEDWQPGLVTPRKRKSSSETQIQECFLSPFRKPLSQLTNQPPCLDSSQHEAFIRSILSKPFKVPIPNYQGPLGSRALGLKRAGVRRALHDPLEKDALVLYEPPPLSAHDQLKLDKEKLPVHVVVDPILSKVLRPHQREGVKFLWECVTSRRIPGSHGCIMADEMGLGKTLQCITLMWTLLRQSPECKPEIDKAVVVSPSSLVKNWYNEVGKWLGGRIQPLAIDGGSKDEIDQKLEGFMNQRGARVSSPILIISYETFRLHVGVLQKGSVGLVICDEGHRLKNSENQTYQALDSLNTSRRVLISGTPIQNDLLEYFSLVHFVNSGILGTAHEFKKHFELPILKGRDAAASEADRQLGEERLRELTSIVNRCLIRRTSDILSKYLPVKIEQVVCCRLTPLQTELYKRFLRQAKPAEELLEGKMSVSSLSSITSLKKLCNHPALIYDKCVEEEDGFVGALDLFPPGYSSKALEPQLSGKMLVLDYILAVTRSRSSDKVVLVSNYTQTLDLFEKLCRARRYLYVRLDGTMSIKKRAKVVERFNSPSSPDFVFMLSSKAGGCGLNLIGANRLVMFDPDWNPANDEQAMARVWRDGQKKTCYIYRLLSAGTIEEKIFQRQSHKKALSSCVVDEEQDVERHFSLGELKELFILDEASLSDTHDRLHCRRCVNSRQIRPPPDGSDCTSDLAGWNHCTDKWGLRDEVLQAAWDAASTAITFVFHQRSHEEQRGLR

[13] = target: T4, DNA repair protein RAD52 homolog (Homo sapiens, UniProt P43351); format: functional, biochemical
T4 sequence (P43351 whole entry): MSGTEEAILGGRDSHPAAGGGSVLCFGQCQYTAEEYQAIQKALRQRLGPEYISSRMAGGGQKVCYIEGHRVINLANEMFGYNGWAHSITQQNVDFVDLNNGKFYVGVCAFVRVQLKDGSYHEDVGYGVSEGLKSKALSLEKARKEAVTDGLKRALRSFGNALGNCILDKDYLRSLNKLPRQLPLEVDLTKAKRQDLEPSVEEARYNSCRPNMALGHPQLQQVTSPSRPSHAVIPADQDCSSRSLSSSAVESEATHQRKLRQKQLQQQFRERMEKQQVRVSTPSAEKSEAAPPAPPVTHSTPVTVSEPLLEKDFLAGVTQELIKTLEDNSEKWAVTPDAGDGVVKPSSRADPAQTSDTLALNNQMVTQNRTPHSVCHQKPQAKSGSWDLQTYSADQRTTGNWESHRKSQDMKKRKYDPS

[14] = target: T2, Small ubiquitin-related modifier 1; assay: inhibitors of SUMO1 partner interactions, dose response, biochemical, FRET (AID 624383); format: functional; settings: read-out: IC50_Mean
[15] = cytotoxicity toward NIH3T3 fibroblasts, dose response, counter-screen, cell-based, ATP luminescence, mouse fibroblasts (AID 2010); format: functional;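 also: cells exposed to compound for about 90 hours before reading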
[16] = inhibitors of intracellular T. cruzi replication, confirmation, NIH3T3 host cells, beta-gal luminescence (AID 2044); format: functional, cell-based;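 also: intracellular parasites grown in NIH/3T3 mouse fibroblasts as host cells; luminescent beta-galactosidase reporter signal from transgenic T. cruzi replicating inside host cells; inhibitors lower the luminescence signal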
[17] = P. falciparum Dd2 growth inhibitors, dose response, SYBR Green, dry powder samples, set 9 (AID 1159568); format: functional, cell-based
[18] = target: T5, Caspase-6 (Homo sapiens, UniProt P55212); assay: human caspase-6 inhibitors, dose response, biochemical, VEID-R110 fluorescence, cherry-pick (AID 720632)
T5 sequence (P55212 whole entry): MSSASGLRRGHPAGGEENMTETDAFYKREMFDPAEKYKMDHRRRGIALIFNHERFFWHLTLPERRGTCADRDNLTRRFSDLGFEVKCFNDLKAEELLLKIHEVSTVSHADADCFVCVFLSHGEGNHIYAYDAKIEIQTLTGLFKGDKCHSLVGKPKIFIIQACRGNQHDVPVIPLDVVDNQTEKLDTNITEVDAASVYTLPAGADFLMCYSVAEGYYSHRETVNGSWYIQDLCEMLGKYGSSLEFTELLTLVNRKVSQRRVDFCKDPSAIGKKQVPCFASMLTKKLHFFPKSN

[19] = target: Albumin (Bos taurus, UniProt P02769); assay: Counterscreen for inhibitors of T-cell receptor (TCR)-CD3 interaction: Fluorescence-based biochemical high throughput dose response assay to identify inhibitors of T-cell receptor (TCR)-CD3 interaction using a TAMRA-labeled BSA probe.; format: functional
[20] = target: T6, Carboxy-terminal domain RNA polymerase II polypeptide A small phosphatase 1 (Homo sapiens, UniProt Q9GZU7); assay: inhibitors of CTDSP1, concentration-response testing, biochemical assay, absorbance-based, actives from ultra-high-throughput screening (AID 540297); format: functional
T6 sequence (Q9GZU7 whole entry): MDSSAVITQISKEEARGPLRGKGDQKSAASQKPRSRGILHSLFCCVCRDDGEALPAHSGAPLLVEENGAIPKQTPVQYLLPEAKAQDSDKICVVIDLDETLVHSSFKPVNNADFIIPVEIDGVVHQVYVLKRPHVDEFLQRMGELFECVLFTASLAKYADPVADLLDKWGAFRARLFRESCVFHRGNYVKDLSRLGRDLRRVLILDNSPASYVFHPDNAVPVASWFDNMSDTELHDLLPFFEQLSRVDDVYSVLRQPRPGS

[21] = target: Nonstructural protein 1 (Influenza A virus, UniProt Q194T2); format: functional, Influenza A virus (A/California/07/2009(H1N1))
[22] = cells; format: functional

Sequence of Albumin (P02769 whole entry, the tested form may be a part): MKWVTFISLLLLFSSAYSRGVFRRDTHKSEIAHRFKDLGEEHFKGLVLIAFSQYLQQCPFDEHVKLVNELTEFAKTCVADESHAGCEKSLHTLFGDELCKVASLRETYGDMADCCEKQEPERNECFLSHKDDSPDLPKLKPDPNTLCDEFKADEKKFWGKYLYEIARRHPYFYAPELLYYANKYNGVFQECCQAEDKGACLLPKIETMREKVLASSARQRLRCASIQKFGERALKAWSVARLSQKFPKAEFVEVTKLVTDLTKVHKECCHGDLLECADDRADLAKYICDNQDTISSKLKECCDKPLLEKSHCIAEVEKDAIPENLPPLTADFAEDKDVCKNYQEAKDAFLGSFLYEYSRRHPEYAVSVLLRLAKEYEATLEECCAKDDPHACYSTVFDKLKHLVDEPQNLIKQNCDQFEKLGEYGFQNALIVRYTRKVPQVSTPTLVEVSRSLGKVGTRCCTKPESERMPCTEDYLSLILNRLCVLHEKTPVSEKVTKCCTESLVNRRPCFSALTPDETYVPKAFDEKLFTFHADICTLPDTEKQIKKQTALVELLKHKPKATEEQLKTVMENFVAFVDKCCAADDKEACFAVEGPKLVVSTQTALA
T2 sequence (P63165 whole entry): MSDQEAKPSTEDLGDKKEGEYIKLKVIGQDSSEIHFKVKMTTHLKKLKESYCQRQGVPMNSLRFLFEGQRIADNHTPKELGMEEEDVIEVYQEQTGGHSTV
Sequence of Nonstructural protein 1 (Q194T2 whole entry): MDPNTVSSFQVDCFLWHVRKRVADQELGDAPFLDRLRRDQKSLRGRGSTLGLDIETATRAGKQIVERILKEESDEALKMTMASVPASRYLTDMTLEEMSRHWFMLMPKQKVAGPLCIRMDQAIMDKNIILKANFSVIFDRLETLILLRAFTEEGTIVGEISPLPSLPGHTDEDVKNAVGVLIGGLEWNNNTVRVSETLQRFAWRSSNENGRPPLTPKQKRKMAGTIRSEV

## CC1CCCCC12NC(=O)N(CC(=O)NCCc1ccccn1)C2=O (stereo not given)
[1]
  IC50: > 109 µM (inactive)
[2]
  IC50: > 83.3 µM (inactive)

## O=C(Nc1nc(-c2cccs2)cs1)c1ccc(Cl)cc1
[3]
  IC50: 4.5 µM (active)

## COc1ccc(-c2cc(C(=O)NCc3cn(C)nc3C)c3ccccc3n2)cc1OC
[4]
  IC50: > 50 µM (not active)

## COc1ccccc1-c1ccc(NC2CCCCC2)nn1
[5]
  EC50: 0.6 µM (active)
[6]
  EC50: 1.68 µM (active)
[7]
  EC50: > 12 µM (not active)
[8]
  EC50: < 0.1 µM (active)
[9]
  EC50: 0.442 µM (active)
[10]
  EC50: 52.7 µM (active)

## Cc1cc(-c2cc(NC=O)c3ncc(-c4cccc(C(=O)NCCN(C)C)c4)n3c2)cc(C)c1O
[11]
  IC50: > 66.6 µM (inactive)
[12]
  AC50: 8.33 µM (active)
[13]
  AC50: 1.54 µM (active)
[14]
  IC50: 20.2 µM (inactive)

## CCC(=O)n1nc(-c2ccccc2)nc1SCC(=O)Nc1ccc(C)cc1
[3]
  IC50: 1.22 µM (active)

## Cc1ccc(NC(=O)c2cc(N3C(=O)C4CCCCC4C3=O)ccc2N2CCOCC2)cc1 (stereo not given)
[4]
  IC50: 14.9 µM (not active)

## COc1cccc(NC(=O)c2ccc(NCCCN3CC(C)CC(C)C3)c([N+](=O)[O-])c2)c1 (stereo not given)
[4]
  IC50: 3.92 µM (not active)

## Cc1ccc2nc3c(c(Nc4ccc(O)cc4)c2c1)CCC3
[15]
  EC50: 8.88 µM (active)
[12]
  AC50: 39 µM (active)
[13]
  AC50: 20.5 µM (active)
[16]
  EC50: 1.06 µM (active)

## Cc1sc2c(c1C)c(=O)n(-c1ccc(F)cc1)c(=O)n2CC(=O)NCc1ccco1
[4]
  IC50: 25.1 µM (not active)

## Cc1cc(N2CCN(C)CC2)nc2ccc(NC(S)=NCCCN3CCN(C)CC3)cc12
[12]
  AC50: 24.6 µM (active)
[13]
  AC50: 3.59 µM (active)

## CC1(C)CC(=O)C(Sc2nnc(-c3ccc(O)cc3)n2CC2CCCO2)C(=O)C1 (stereo not given)
[1]
  IC50: > 109 µM (inactive)
[2]
  IC50: > 83.3 µM (inactive)

## COc1cccc(S(=O)(=O)N2CCCCN3[C@H](CO)[C@H](c4ccc(C#CCC(C)C)cc4)[C@H]3C2)c1
[17]
  AC50: 2.41 µM (active)

## O=C(O)c1cnc2c([N+](=O)[O-])cccc2c1O
[18]
  AC50: 5.77 µM (active)
[19]
  IC50: > 94 µM (inactive)
[20]
  IC50: 5.65 µM (active)

## Cc1ccnc(SCc2nc3ccccc3s2)n1
[5]
  EC50: < 0.1 µM (active)
[6]
  EC50: 3.21 µM (active)
[7]
  EC50: > 12 µM (not active)
[8]
  EC50: 6.54 µM (active)
[9]
  EC50: > 12 µM (inconclusive)

## O=C(COC(=O)c1cccnc1)Nc1ccc(F)cc1
[1]
  IC50: > 109 µM (inactive)
[2]
  IC50: > 83.3 µM (inactive)

## N#C[C@H]1[C@@H](c2ccc(C3=CCCCC3)cc2)[C@@H](CO)N1C(=O)Nc1ccccc1F
[17]
  AC50: 15.8 µM (active)

## Cc1ccc(C)c(N=Nc2nc3ccccc3n2C)c1
[6]
  EC50: 0.275 µM (active)
[7]
  EC50: 0.281 µM (active)
[21]
  IC50: 14.3 µM (active)
[8]
  EC50: < 0.1 µM (active)
[9]
  EC50: 0.393 µM (active)
[10]
  EC50: 0.139 µM (inconclusive)

## CCn1c(C)nc2cc(C(=O)NNC(=S)NC(=O)c3ccccc3)ccc21
[19]
  IC50: > 94.1 µM (inactive)

## C[C@@H]1CCCCO[C@@H](CN(C)S(=O)(=O)c2ccccc2)[C@H](C)CN([C@H](C)CO)C(=O)c2cc(NC(=O)Nc3ccc4c(c3)OCO4)ccc2O1
[17]
  AC50: 1.17 µM (active)

## O=C(Nc1ncc(Cc2ccccc2)s1)C1=NCCN1
[22]
  IC50: 14 µM (active)
[1]
  IC50: > 109 µM (inactive)
[2]
  IC50: > 83.3 µM (inactive)

## O=C(Nc1cc(F)ccc1F)N1CCCCN2[C@H](CO)[C@H](c3ccc(C4=CCCCC4)cc3)[C@@H]2C1
[17]
  AC50: 12.2 µM (active)

— ChEMBL document CHEMBL1201862, “PubChem BioAssay data set” (2004)
